Read-outs that look alike come from different tables or passages of the source.
What was measured:
[1] = Solubility observation during MTT testing; assay type: physicochemical
Method: All 26 acridine-core naphthoquinone compounds were submitted to the MTT assay to assess their cytotoxicity. […] These compounds were excluded from further biological experimentation. First, the assay was conducted on the SCC9 OSCC cell line and the results were analyzed by a nonlinear regression curve to determine the value of the half maximal inhibitory concentration (IC50). […] Anticancer activities of these compounds are reported here for the first time.

SCC9 (OSCC cell) = assay: MTT cell viability assay (cytotoxicity), SCC9; assay type: cell-based, human; details: for IC50: read-out: SCC9—Oral Cancer IC50; for SCC9 S.I.: IC50 normal oral fibroblasts / IC50 SCC9
Method: (§1) Cells and reagents. Human SCC-4, SCC-9, and SCC-25 cells, derived from a human oral tongue SCC (squamous cell carcinoma) were obtained from the ATCC (CRL-1624, CRL-1629, and CRL-1628, respectively) and maintained in 1:1 DMEM/F12 (Dulbecco’s modified Eagle medium and Ham’s F12 medium; Gibco (Thermo Fisher, Waltham, MA, USA)) supplemented with 10% (v/v) FBS (fetal bovine serum; Invitrogen, Thermo Fisher, Waltham, MA, USA) and 400 ng/mL hydrocortisone (Sigma-Aldrich Co., St. Louis, MO, USA). Primary normal human gingival fibroblasts were obtained from the ATCC (PCS-201-018) and maintained in DMEM supplemented with 10% (v/v) FBS and were used in a maximum of six passages. The cells were grown in a humidified environment containing 5% CO2 at 37 °C. […] Carboplatin stock was prepared in water (Fauldcarbo®; LibbsFarmacêutica, São Paulo, SP, Brazil) and was used as a standard anticancer compound.
(§2) Cell viability assay (cytotoxicity) and compound stability assay. The viability of SCC cell lines and primary human fibroblast cells was evaluated using the MTT assay as in [48]. Briefly, the cells were grown in triplicates in 96-well plates (5 × 10^3 cells/well) until confluence. Then, the medium was removed, fresh medium was added, and the cells were returned to the incubator in the presence of different compounds. DMSO at the same concentrations was used as a 100% cell viability control. After 48 h, the cells were incubated with 5 mg/mL MTT reagent (3-(4,5-dimethyl-2-thiazolyl)-2,5-diphenyl-2-H-tetrazolium bromide) (Sigma-Aldrich Co., St. Louis, MO, USA) for 3.5 h. After that, formazan crystals were dissolved in MTT solvent solution (DMSO/methanol 1:1 v/v) and the absorbance at 560 nm was evaluated using an EPOCH microplate spectrophotometer (BioTek Instruments, Winooski, VT, USA) with the background absorbance at 670 nm subtracted.
(§3) Statistical analysis, IC50 calculation. The data are presented as means ±\SD. IC50 values for the MTT assays were obtained by nonlinear regression using the […] 5.0 program (Intuitive Software for Science, San Diego, CA, USA) from at least three independent experiments. A dose–response (inhibitor) vs. response curve using the least squares method was used to determine the IC50, SD, and R^2 of the data. The selectivity index was calculated as SI = IC50 of the compound in normal oral fibroblast cells/IC50 of the same compound for each oral cancer cell line (SCC-4, SCC-9, and SCC-25) and the mean was calculated when indicated.

SCC25 OSCC cell line = assay: MTT cell viability assay (cytotoxicity), SCC25; assay type: cell-based, human; details: for SCC25 S.I.: IC50 normal oral fibroblasts / IC50 SCC25; for IC50: read-out: Oral Tumor Cells SCC25 IC50
Method: as §1, §2, §3

[2] = system: Primary normal human gingival fibroblasts; assay: MTT cell viability assay, normal fibroblasts; assay type: cell-based; details: 48 h, read-out: Primary Gingival Fibroblast IC50
Method: as §1, §2, §3

SCC4 OSCC cell line = assay: MTT cell viability assay (cytotoxicity), SCC4; assay type: cell-based, human; details: for SCC4 S.I.: IC50 normal oral fibroblasts / IC50 SCC4; for IC50: read-out: Oral Tumor Cells SCC4 IC50
Method: as §1, §2, §3

[3] = formed crystals at low concentrations in MTT assay
[4] = Homo sapiens, SCC-9, SCC9, 48 h, MTT (Table 1)
[5] = Homo sapiens, SCC-25, SCC25, 48 h, MTT
[6] = Homo sapiens, Fibroblast, primary gingival fibroblasts, MTT
[7] = Homo sapiens, SCC-4, SCC4, 48 h, MTT

Molecule | solubility [1, 3] | melting point [°C] | IC50 (SCC9 (OSCC cell); [4]) [µM] | further results
12-(3,3-dimethylphenyl)-3,4-dihydrobenzo[b]acridine-1,6,11(2H,5H,12H)-trione [4a] | – | – | – | solubility [1]: highly insoluble
CC1(C)CC(=O)C2=C(C1)NC1=C(C(=O)c3ccccc3C1=O)C2c1ccccc1Cl (centres unmarked) [4b, 12-(2-chlorophenyl)-3,3-dimethyl-3,4-dihydrobenzo[b]acridine-1,6,11(2H,5H,12H)-trione] | highly insoluble | – | – | –
CC1(C)CC(=O)C2=C(C1)NC1=C(C(=O)c3ccccc3C1=O)C2c1cccc(Cl)c1 (centres unmarked) [4c, 12-(3-chlorophenyl)-3,3-dimethyl-3,4-dihydrobenzo[b]acridine-1,6,11(2H,5H,12H)-trione] | – | 249 to 251 | 14.7 | –
CC1(C)CC(=O)C2=C(C1)NC1=C(C(=O)c3ccccc3C1=O)C2c1ccc(Cl)cc1 (centres unmarked) [4d, 12-(4-chlorophenyl)-3,3-dimethyl-3,4-dihydrobenzo[b]acridine-1,6,11(2H,5H,12H)-trione] | – | 287 to 288 | 51.6 | –
CC1(C)CC(=O)C2=C(C1)NC1=C(C(=O)c3ccccc3C1=O)C2c1ccc(F)cc1 (centres unmarked) [4f, 12-(4-fluorophenyl)-3,3-dimethyl-3,4-dihydrobenzo[b]acridine-1,6,11(2H,5H,12H)-trione] | highly insoluble | 295 to 297 | – | –
CC1(C)CC(=O)C2=C(C1)NC1=C(C(=O)c3ccccc3C1=O)C2c1c(F)c(F)c(F)c(F)c1F (centres unmarked) [4g, 12-(perfluorophenyl)-3,3-dimethyl-3,4-dihydrobenzo[b]acridine-1,6,11(2H,5H,12H)-trione] | highly insoluble | 260 to 261 | – | –
CC1(C)CC(=O)C2=C(C1)NC1=C(C(=O)c3ccccc3C1=O)C2c1ccc(Br)cc1 (centres unmarked) [4h, 12-(4-bromophenyl)-3,3-dimethyl-3,4-dihydrobenzo[b]acridine-1,6,11(2H,5H,12H)-trione] | – | 293 to 295 | 5.86 | –
Cc1ccc(C2C3=C(CC(C)(C)CC3=O)NC3=C2C(=O)c2ccccc2C3=O)c(C)c1 (centres unmarked) [4i, 12-(2,4-dimethylphenyl)-3,3-dimethyl-3,4-dihydrobenzo[b]acridine-1,6,11(2H,5H,12H)-trione] | highly insoluble | – | – | –
COc1ccc(C2C3=C(CC(C)(C)CC3=O)NC3=C2C(=O)c2ccccc2C3=O)cc1OC (centres unmarked) [4l, 12-(3,4-dimethoxyphenyl)-3,3-dimethyl-3,4-dihydrobenzo[b]acridine-1,6,11(2H,5H,12H)-trione] | – | 238 to 239 | 4.46 | –
O=C1CCCC2=C1C(c1ccc(Cl)cc1Cl)C1=C(N2)C(=O)c2ccccc2C1=O (centres unmarked) [5e, 12-(2.4-dichlorophenyl)-3,4-dihydrobenzo[b]acridine-1,6,11(2H,5H,12H)-trione] | – | – | 4.75 | –
COc1ccc(C2C3=C(CCCC3=O)NC3=C2C(=O)c2ccccc2C3=O)c(OC)c1 (centres unmarked) [5j, 12-(2,4-dimethoxyphenyl)-3,4-dihydrobenzo[b]acridine-1,6,11(2H,5H,12H)-trione] | – | – | 6.84 | –
N.N.O=C([O-])C1(C(=O)[O-])CCC1.[Pt+2] [Carboplatin, carboplatin] | – | – | – | SCC25 S.I. (SCC25 OSCC cell line): 3.0; IC50 (SCC25 OSCC cell line; SCC25, 48 h, MTT): 186 µM; SCC9 S.I. (SCC9 (OSCC cell)): 2.2; IC50 (SCC9 (OSCC cell); SCC9, 48 h, MTT (Table 1)): 250 µM; IC50 ([2]; primary gingival fibroblasts, MTT): 560 µM; SCC4 S.I. (SCC4 OSCC cell line): 3.1; IC50 (SCC4 OSCC cell line; SCC4, 48 h, MTT): 180 µM
COc1cccc2c1C(=O)c1c(O)c3c(c(O)c1C2=O)C[C@@](O)(C(=O)CO)C[C@@H]3O[C@H]1C[C@H](N)[C@H](O)[C@H](C)O1 [Doxorubicin, doxorubicin] | – | – | 7.8 | IC50 (SCC25 OSCC cell line; [5]): 1.27 µM; SCC25 S.I. (SCC25 OSCC cell line): 9.7; SCC9 S.I. (SCC9 (OSCC cell)): 1.6; IC50 [2, 6]: 12.3 µM; IC50 (SCC4 OSCC cell line; [7]): 4.56 µM; SCC4 S.I. (SCC4 OSCC cell line): 2.7
CC(C)=CCC1=C(O)C(=O)c2ccccc2C1=O [Lapachol, lapachol] | – | – | 58.3 | IC50 (SCC25 OSCC cell line; [5]): 93.8 µM; SCC25 S.I. (SCC25 OSCC cell line): 1.1; SCC9 S.I. (SCC9 (OSCC cell)): 1.8; IC50 [2, 6]: 106 µM; IC50 (SCC4 OSCC cell line; [7]): 76.9 µM; SCC4 S.I. (SCC4 OSCC cell line): 1.4
CC(C)=CC[C@@H](O)C1=CC(=O)c2c(O)ccc(O)c2C1=O [Shikonin, shikonin] | – | – | – | IC50 (SCC25 OSCC cell line; Homo sapiens, SCC-25, 48 h): 2.47 µM; SCC25 S.I. (SCC25 OSCC cell line): 1.0; IC50 (SCC9 (OSCC cell); Homo sapiens, SCC-9, 48 h): 1.22 µM; SCC9 S.I. (SCC9 (OSCC cell)): 2.0; IC50 ([2]; Homo sapiens, Fibroblast): 2.48 µM; IC50 (SCC4 OSCC cell line; Homo sapiens, SCC-4, 48 h): 3.19 µM; SCC4 S.I. (SCC4 OSCC cell line): 0.8

Now from value to molecule, other results behind:

solubility [1, 3] | melting point [°C] | Molecule | IC50 (SCC9 (OSCC cell); [4]) [µM] | further results
highly insoluble | 287 to 288 | O=C1CCCC2=C1C(c1ccccc1)C1=C(N2)C(=O)c2ccccc2C1=O (centres unmarked) [5a, 12-phenyl-3,4-dihydrobenzo[b]acridine-1,6,11(2H,5H,12H)-trione] | – | –
highly insoluble | – | O=C1CCCC2=C1C(c1ccccc1Cl)C1=C(N2)C(=O)c2ccccc2C1=O (centres unmarked) [5b, 12-(2-chlorophenyl)-3,4-dihydrobenzo[b]acridine-1,6,11(2H,5H,12H)-trione] | – | –
– | 217 to 218 | O=C1CCCC2=C1C(c1cccc(Cl)c1)C1=C(N2)C(=O)c2ccccc2C1=O (centres unmarked) [5c, 12-(3-chlorophenyl)-3,4-dihydrobenzo[b]acridine-1,6,11(2H,5H,12H)-trione] | 8.93 | –
– | 230 to 231 | O=C1CCCC2=C1C(c1ccc(Cl)cc1)C1=C(N2)C(=O)c2ccccc2C1=O (centres unmarked) [5d, 12-(4-chlorophenyl)-3,4-dihydrobenzo[b]acridine-1,6,11(2H,5H,12H)-trione] | 2.21 | –
highly insoluble | 255 to 256 | O=C1CCCC2=C1C(c1ccc(F)cc1)C1=C(N2)C(=O)c2ccccc2C1=O (centres unmarked) [5f, 12-(4-fluorophenyl)-3,4-dihydrobenzo[b]acridine-1,6,11(2H,5H,12H)-trione] | – | –
highly insoluble | – | O=C1CCCC2=C1C(c1c(F)c(F)c(F)c(F)c1F)C1=C(N2)C(=O)c2ccccc2C1=O (centres unmarked) [5g, 12-(perfluorophenyl)-3,4-dihydrobenzo[b]acridine-1,6,11(2H,5H,12H)-trione] | – | –
– | 257 to 258 | O=C1CCCC2=C1C(c1ccc(Br)cc1)C1=C(N2)C(=O)c2ccccc2C1=O (centres unmarked) [5h, 12-(4-bromophenyl)-3,4-dihydrobenzo[b]acridine-1,6,11(2H,5H,12H)-trione] | 7.63 | –
highly insoluble | 263 to 264 | Cc1ccc(C2C3=C(CCCC3=O)NC3=C2C(=O)c2ccccc2C3=O)c(C)c1 (centres unmarked) [5i, 12-(2,4-dimethylphenyl)-3,4-dihydrobenzo[b]acridine-1,6,11(2H,5H,12H)-trione] | – | –
– | 219 to 220 | COc1ccc(OC)c(C2C3=C(CCCC3=O)NC3=C2C(=O)c2ccccc2C3=O)c1 (centres unmarked) [5k, 12-(2,5-dimethoxyphenyl)-3,4-dihydrobenzo[b]acridine-1,6,11(2H,5H,12H)-trione] | 7.2 | –
– | 228 to 230 | COc1ccc(C2C3=C(CCCC3=O)NC3=C2C(=O)c2ccccc2C3=O)cc1OC (centres unmarked) [5l, 12-(3,4-dimethoxyphenyl)-3,4-dihydrobenzo[b]acridine-1,6,11(2H,5H,12H)-trione] | 5.9 | –
– | 236 to 237 | COc1cc(C2C3=C(CCCC3=O)NC3=C2C(=O)c2ccccc2C3=O)cc(OC)c1OC (centres unmarked) [5m, 12-(3,4,5-trimethoxyphenyl)-3,4-dihydrobenzo[b]acridine-1,6,11(2H,5H,12H)-trione] | 3.32 | –
